According to publication PMC8757871, “Bridging the Antimicrobial Activity of Two Lactoferricin Derivatives in E. coli and Lipid-Only Membranes” (Frontiers in Medical Technology, 2021):

Experiment: ANTS/DPX dye leakage assay and equi-activity partitioning analysis
Conditions: for K (mole fraction partitioning coefficient) / RB ([P]B/[L]) / [P]W (peptide concentration in the water phase): fit of Equation (4), [L] = (1−20) mM, [P] = (0.05−2) mM, HBS
Experimental: All hydrated samples were equilibrated for 1 h at 40°C followed by 5 freeze-and-thaw cycles using liquid N2 and intermittent vortex-mixing. Large unilamellar vesicles (LUVs) were obtained by 31 extrusions with a handheld mini extruder (Avanti Polar Lipids, Alabaster, AL) using a 100 nm pore diameter polycarbonate filter. Vesicle size and polydispersity were determined via DLS using a Zetasizer NANO ZSP (Malvern Panalytical, Malvern, UK). ANTS/DPX-containing vesicles were separated from free ANTS/DPX by exclusion chromatography using a column filled with SephadexTM G-75 (Amersham Biosciences, Little Chalfont, UK) fine gel swollen in iso-osmotic HBS. Phospholipid concentrations for all samples were determined by phosphate analysis.
Dye leakage experiments were performed combining previously reported protocols ([20], [27]). […] Similar time protocols were applied previously ([27]) and are justified here based on separate time-resolved leakage experiments (Supplementary Figure 3) and Trp-fluorescence measurements (Figure 3), showing that a quasi steady state has been reached after 1 h. Before measurements, lipid/peptide solutions were diluted with HBS to a lipid concentration of 50 μM, and every measurement was repeated at least twice. Vesicle size was checked after each incubation period using DLS. Samples were excited at λ= 360 nm, and the intensity of the fluorescence emission peak at λ= 530 nm, Ip, was recorded with a slit width of 10 nm for both excitation and emission monochromators. Measurements were performed in quartz cuvettes in 2 ml of the iso-osmotic buffer on a Cary Eclipse Fluorescence Spectrophotometer (Varian/Agilent Technologies, Palo Alto, CA). The percentage of leakage, E%, was calculated according to the relation
(1) E%=Ip-Imin/Imax-Imin,
where Imin is the initial fluorescence without peptide, and Imax is the fluorescence corresponding to 100% leakage determined through the addition of a 1 vol% solution of Triton X-100. The initial, monotonic increase of E% values with increasing [P] was interpolated with a sigmoidal function. This enabled us to obtain peptide and lipid concentrations leading to a specific E% value, which can in turn be used to calculate the partitioning parameters (see section 2.3.1).
(4) [P]=RB[W]/K︸[P]W+RB[L]︸[P]B=RB([W]/K+[L]),

[1] = POPG LUVs, leakage 10%, 1 h at 37°C
[2] = POPG LUVs, leakage 20%, 1 h at 37°C
[3] = POPG LUVs, leakage 40%, 1 h at 37°C

With “H-FWRIRIRR-NH2 [LF11-215, H-FWRIRIRR-NH2]” the “K (mole fraction partitioning coefficient)” value [1] was 2.4 ± 0.7 ×10^4, the “RB ([P]B/[L])” value [1] was 36 ± 4 ×10^−3 and the “[P]W (peptide concentration in the water phase)” value [1] was 0.08 ± 0.03 mM. For the same substance, the “K (mole fraction partitioning coefficient)” value [2] was 4.2 ± 0.4 ×10^4, the “RB ([P]B/[L])” value [2] was 55.9 ± 1.6 ×10^−3 and the “[P]W (peptide concentration in the water phase)” value [2] was 0.073 ± 0.009 mM. The “K (mole fraction partitioning coefficient)” value [3] was 5.4 ± 1.4 ×10^4, the “RB ([P]B/[L])” value [3] was 72 ± 6 ×10^−3 and the “[P]W (peptide concentration in the water phase)” value [3] was 0.08 ± 0.03 mM. For the same substance, the “ANTS/DPX leakage, maximum reached (sigmoidal increase up to)” value (POPG LUVs, 1 h at 37°C, increasing [P]) was at most 100% and the “fraction of peptides partitioned into the lipid phase” value (POPG, at [L] ≃20 mM) was over 90%.
